Measurements from patent US20230233569A1 (Revolution Medicines, Inc., priority 2020, published 2023).
Read-outs that look alike come from different tables or passages of the source.

Legend:
NRAS Q61R = NRAS Q61R (Homo sapiens, UniProt P01111+P62937, Q61R); test: Disruption of BRAF RBD interaction with Ras (FRET / MOA assay, with Cyclophilin A); type: biochemical; conditions: NRAS Q61R; read-out: NRAS Q61R FRET data IC50
Method in brief: (§1)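 TR-FRET in 25 mM HEPES pH 7.3, 100 mM NaCl, 5 mM MgCl2, 0.1% BSA: 25 μM Cyclophilin A, 12.5 nM His6-Ras-GMPPNP, 50 nM GST-BRAF RBD with compound (10-point 3-fold series from 30 μM), 3 h at 25° C. Anti-His Eu/anti-GST APC added, 1.5 h more; IC50 from decreased FRET ratio versus DMSO.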

KRAS Q61H = KRAS Q61H (Homo sapiens, UniProt P01116+P62937, Q61H); test: as above; type: biochemical; conditions: KRAS Q61H; read-out: KRAS Q61H FRET data IC50
Sequence of KRAS Q61H (P01116 1-169 isoform P01116-2 Q61H limits assumed): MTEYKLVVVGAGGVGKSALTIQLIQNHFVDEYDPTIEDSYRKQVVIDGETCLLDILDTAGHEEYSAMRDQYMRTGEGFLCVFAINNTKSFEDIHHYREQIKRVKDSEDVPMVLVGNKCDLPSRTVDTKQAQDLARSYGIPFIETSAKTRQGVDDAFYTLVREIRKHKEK
Sequence of KRAS Q61H (P62937 whole entry): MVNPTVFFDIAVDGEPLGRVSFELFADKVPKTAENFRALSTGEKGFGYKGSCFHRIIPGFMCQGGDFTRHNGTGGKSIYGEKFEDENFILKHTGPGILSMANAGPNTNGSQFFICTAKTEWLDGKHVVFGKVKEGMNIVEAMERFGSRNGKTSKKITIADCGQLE
Method in brief: as §1

NRAS Q61K = NRAS Q61K (Homo sapiens, UniProt P01111+P62937, Q61K); test: as above; type: biochemical; conditions: NRAS Q61K; read-out: NRAS Q61K FRET data IC50
Sequence of NRAS Q61K (P01111 whole entry Q61K): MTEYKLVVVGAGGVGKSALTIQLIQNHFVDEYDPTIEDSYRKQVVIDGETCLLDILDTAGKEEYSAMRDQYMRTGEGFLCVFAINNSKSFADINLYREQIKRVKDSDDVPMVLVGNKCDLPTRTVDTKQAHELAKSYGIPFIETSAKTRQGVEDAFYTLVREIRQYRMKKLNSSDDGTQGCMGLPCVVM
Sequence of NRAS Q61K (P62937 whole entry): as the sequence (P62937 whole entry) above
Method in brief: as §1

NRAS WT = NRAS WT (Homo sapiens, UniProt P01111+P62937); test: as above; type: biochemical; conditions: NRAS WT; read-out: NRAS WT FRET data IC50
Sequence of NRAS WT (P01111 whole entry): as the sequence (P01111 whole entry Q61K) above, with K61Q counted along it
Sequence of NRAS WT (P62937 whole entry): as the sequence (P62937 whole entry) above
Method in brief: as §1

Capan-1 (K-Ras G12V) = test: CellTiter-Glo cell viability assay, 5-day treatment; type: cell-based; conditions: Homo sapiens, CAPAN-1, 120 h
Method in brief: (§2)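 Compounds were dispensed directly onto seeded cells and incubated for 5 days, then plates were equilibrated to room temperature for about 30 minutes before luminescence reading. Signals were expressed as percent of the mean DMSO control and fitted with a four-parameter logistic curve.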

NCI-H358 (K-Ras G12C) = test: as above; type: cell-based; conditions: Homo sapiens, NCI-H358, 120 h, 5-day treatment; read-out: H358 Cell Viability assay data (K-Ras G12C, IC50)
Method in brief: as §2

KRAS G12V = KRAS G12V (Homo sapiens, UniProt P01116+P62937, G12V); test: Disruption of BRAF RBD interaction with Ras (FRET / MOA assay, with Cyclophilin A); type: biochemical; conditions: KRAS G12V; read-out: KRAS G12V FRET data IC50
Sequence of KRAS G12V (P01116 1-169 isoform P01116-2 G12V limits assumed): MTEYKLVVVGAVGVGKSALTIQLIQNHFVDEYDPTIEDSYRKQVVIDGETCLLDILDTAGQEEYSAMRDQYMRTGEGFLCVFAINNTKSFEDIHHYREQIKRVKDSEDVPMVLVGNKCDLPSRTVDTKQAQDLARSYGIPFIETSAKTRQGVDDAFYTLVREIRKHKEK
Sequence of KRAS G12V (P62937 whole entry): as the sequence (P62937 whole entry) above
Method in brief: (§3)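 First, compounds at a ten-point threefold dilution series (highest final concentration 30 μM) were incubated with nucleotide-loaded K-Ras, Cyclophilin A and BRAF RBD for 3 h at 25 °C. Next, detection antibodies were added for 1.5 h. Finally, IC50 was calculated from TR-FRET ratio decreases against DMSO controls.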

KRAS G12S = KRAS G12S (Homo sapiens, UniProt P01116+P62937, G12S); test: as above; type: biochemical; conditions: read-out: KRAS G12S FRET data, IC50
Sequence of KRAS G12S (P01116 1-169 isoform P01116-2 G12S limits assumed): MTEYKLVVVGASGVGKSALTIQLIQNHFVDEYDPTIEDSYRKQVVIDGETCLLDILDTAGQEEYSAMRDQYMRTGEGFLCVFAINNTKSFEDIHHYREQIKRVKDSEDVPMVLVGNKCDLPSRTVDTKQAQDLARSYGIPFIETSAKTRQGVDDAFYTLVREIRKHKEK
Sequence of KRAS G12S (P62937 whole entry): as the sequence (P62937 whole entry) above
Method in brief: as §3

NRAS G12C = NRAS G12C (Homo sapiens, UniProt P01111+P62937, G12C); test: as above; type: biochemical; conditions: NRAS G12C; read-out: NRAS G12C FRET data IC50
Sequence of NRAS G12C (P01111 whole entry G12C): as the sequence (P01111 whole entry Q61K) above, with G12C, K61Q counted along it
Sequence of NRAS G12C (P62937 whole entry): as the sequence (P62937 whole entry) above

KRAS WT = KRAS WT (Homo sapiens, UniProt P01116+P62937); test: as above; type: biochemical; conditions: KRAS WT; read-out: KRAS WT FRET data IC50
Sequence of KRAS WT (P01116 1-169 isoform P01116-2 limits assumed): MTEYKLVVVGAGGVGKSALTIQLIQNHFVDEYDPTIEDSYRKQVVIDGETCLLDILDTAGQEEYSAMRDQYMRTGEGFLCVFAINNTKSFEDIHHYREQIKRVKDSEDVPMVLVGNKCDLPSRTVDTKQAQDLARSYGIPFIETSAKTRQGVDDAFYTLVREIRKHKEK
Sequence of KRAS WT (P62937 whole entry): as the sequence (P62937 whole entry) above
Method in brief: as §3

KRAS G12D = KRAS G12D (Homo sapiens, UniProt P01116+P62937, G12D); test: as above; type: biochemical; conditions: read-out: KRAS G12D FRET data, IC50
Sequence of KRAS G12D (P01116 1-169 isoform P01116-2 G12D limits assumed): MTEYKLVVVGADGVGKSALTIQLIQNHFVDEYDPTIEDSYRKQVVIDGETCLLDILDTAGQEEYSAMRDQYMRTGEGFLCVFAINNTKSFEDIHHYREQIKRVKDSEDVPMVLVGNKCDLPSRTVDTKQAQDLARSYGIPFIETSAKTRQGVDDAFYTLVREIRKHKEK
Sequence of KRAS G12D (P62937 whole entry): as the sequence (P62937 whole entry) above
Method in brief: as §3

KRAS G12C = KRAS G12C (Homo sapiens, UniProt P01116+P62937, G12C); test: as above; type: biochemical; conditions: read-out: KRAS G12C FRET data, IC50
Sequence of KRAS G12C (P01116 1-169 isoform P01116-2 G12C): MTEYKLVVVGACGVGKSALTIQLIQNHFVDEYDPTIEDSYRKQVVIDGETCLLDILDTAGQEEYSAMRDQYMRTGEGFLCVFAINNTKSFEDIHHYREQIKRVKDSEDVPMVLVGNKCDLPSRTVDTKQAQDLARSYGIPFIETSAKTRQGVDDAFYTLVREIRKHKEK
Sequence of KRAS G12C (P62937 whole entry): as the sequence (P62937 whole entry) above
Method in brief: as §3

KRAS G13C = KRAS G13C (Homo sapiens, UniProt P01116+P62937, G13C); test: as above; type: biochemical; conditions: read-out: KRAS G13C FRET data, IC50
Sequence of KRAS G13C (P01116 1-169 isoform P01116-2 G13C): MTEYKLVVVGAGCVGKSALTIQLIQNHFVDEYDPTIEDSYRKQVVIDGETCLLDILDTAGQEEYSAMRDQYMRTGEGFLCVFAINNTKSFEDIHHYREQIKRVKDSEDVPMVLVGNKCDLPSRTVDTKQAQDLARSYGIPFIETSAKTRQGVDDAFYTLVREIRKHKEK
Sequence of KRAS G13C (P62937 whole entry): as the sequence (P62937 whole entry) above
Method in brief: as §3

KRAS G13D = KRAS G13D (Homo sapiens, UniProt P01116+P62937, G13D); test: as above; type: biochemical; conditions: KRAS G13D; read-out: KRAS G13D FRET data IC50
Sequence of KRAS G13D (P01116 1-169 isoform P01116-2 G13D limits assumed): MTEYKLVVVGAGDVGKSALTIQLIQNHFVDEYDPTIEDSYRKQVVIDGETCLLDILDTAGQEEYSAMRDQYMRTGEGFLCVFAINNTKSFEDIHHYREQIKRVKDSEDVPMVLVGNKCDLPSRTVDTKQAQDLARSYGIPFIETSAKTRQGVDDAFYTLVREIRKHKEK
Sequence of KRAS G13D (P62937 whole entry): as the sequence (P62937 whole entry) above
Method in brief: as §3

[1] = 5-day treatment, read-out: Capan-1 Cell Viability assay data (K-Ras G12V, IC50)
[2] = read-out: Capan-1 Cell Viability assay data (K-Ras G12V, IC50, uM)

Sequence of NRAS Q61R (P01111 whole entry Q61R): as the sequence (P01111 whole entry Q61K) above, with K61R counted along it
Sequence of NRAS Q61R (P62937 whole entry): as the sequence (P62937 whole entry) above

Row | SMILES | IC50 (NRAS Q61R) [nM] | IC50 (KRAS Q61H) [nM] | IC50 (NRAS Q61K) [nM] | IC50 (NRAS WT) [nM] | IC50 (NCI-H358 (K-Ras G12C)) [nM] | IC50 (KRAS G12V) [nM] | IC50 (KRAS G12S) [nM] | IC50 (NRAS G12C) [nM] | IC50 (KRAS WT) [nM] | IC50 (KRAS G12D) [nM] | IC50 (KRAS G12C) [nM] | IC50 (KRAS G13C) [nM] | IC50 (KRAS G13D) [nM] | IC50 (Capan-1 (K-Ras G12V); [1]) [µM] | IC50 (Capan-1 (K-Ras G12V); [2]) [µM]
1 | CCn1c(-c2cccnc2[C@H](C)OC)c2c3cc(ccc31)-c1csc(n1)C[C@H](NC(=O)[C@H](C(C)C)N(C)C(=O)[C@@H]1CCN(C)[C@@H]1c1ccccc1)C(=O)N1CCC[C@H](N1)C(=O)OCC(C)(C)C2 [Example A464] | 1000 to 10000 | 100 to 1000 | 1000 to 10000 | 1000 to 10000 | 1000 to 10000 | 1000 to 10000 | 1000 to 10000 | 1000 to 10000 | 1000 to 10000 | 1000 to 10000 | 1000 to 10000 | 1000 to 10000 | 1000 to 10000 | – | 1 to 10
2 | CCn1c(-c2cc(C3CCN(C)CC3)cnc2[C@H](C)OC)c2c3cc(ccc31)-c1csc(n1)C[C@H](NC(=O)[C@H](C(C)C)N(C)C(=O)N1CC(C3COC3)C1)C(=O)N1CCC[C@H](N1)C(=O)OCC(C)(C)C2 [Example A465] | 10 to 100 | 10 to 100 | 10 to 100 | 10 to 100 | < 10 | 10 to 100 | 10 to 100 | 10 to 100 | 10 to 100 | 100 to 1000 | 10 to 100 | 10 to 100 | 100 to 1000 | – | < 0.01

Now from value to compound, other results behind:

Row | IC50 (NRAS Q61R) [nM] | IC50 (KRAS Q61H) [nM] | IC50 (NRAS Q61K) [nM] | IC50 (NRAS WT) [nM] | IC50 (NCI-H358 (K-Ras G12C)) [nM] | IC50 (KRAS G12V) [nM] | IC50 (KRAS G12S) [nM] | IC50 (NRAS G12C) [nM] | IC50 (KRAS WT) [nM] | IC50 (KRAS G12D) [nM] | IC50 (KRAS G12C) [nM] | IC50 (KRAS G13C) [nM] | IC50 (KRAS G13D) [nM] | SMILES | IC50 (Capan-1 (K-Ras G12V); [1]) [µM] | IC50 (Capan-1 (K-Ras G12V); [2]) [µM]
3 | 100 to 1000 | 100 to 1000 | 100 to 1000 | 100 to 1000 | 100 to 1000 | 1000 to 10000 | 100 to 1000 | 100 to 1000 | 100 to 1000 | 1000 to 10000 | 100 to 1000 | 1000 to 10000 | 1000 to 10000 | CCn1c(-c2cccnc2[C@H](C)OC)c2c3cc(ccc31)-c1csc(n1)C[C@H](NC(=O)[C@H](C(C)C)N(C)C(=O)N(C)C1(COC)COC1)C(=O)N1CCC[C@H](N1)C(=O)OCC(C)(C)C2 [Example A455] | 0.1 to 1 | –
4 | 10 to 100 | 10 to 100 | 10 to 100 | 10 to 100 | 10 to 100 | 100 to 1000 | 10 to 100 | 10 to 100 | 10 to 100 | 100 to 1000 | 10 to 100 | 10 to 100 | 10 to 100 | CCn1c(-c2cccnc2[C@H](C)OC)c2c3cc(ccc31)-c1csc(n1)C[C@H](NC(=O)[C@H](C(C)C)N(C)C(=O)N1CCN(C(=O)CCN(C)C)CC1)C(=O)N1CCC[C@H](N1)C(=O)OCC(C)(C)C2 [Example A459] | 0.1 to 1 | –
5 | 1000 to 10000 | 100 to 1000 | 100 to 1000 | 100 to 1000 | 10 to 100 | 1000 to 10000 | 1000 to 10000 | 100 to 1000 | 1000 to 10000 | 1000 to 10000 | 100 to 1000 | 1000 to 10000 | 1000 to 10000 | CCn1c(-c2cccnc2[C@H](C)OC)c2c3cc(ccc31)-c1csc(n1)C[C@H](NC(=O)[C@H](C(C)C)N(C)C(=O)N1C[C@@H]3CN(C)CC[C@@H]31)C(=O)N1CCC[C@H](N1)C(=O)OCC(C)(C)C2 [Example A481] | 0.01 to 0.1 | –
